“And” between values parts separate entries of the source, which are not always exact repeats. Equal values may be shown once.
Tested on: 188146-221-R-J1-PDC complex spheroid viability
Assay: Anticancer human tumor 188146-221-R-J1-PDC patient-derived colon adenocarcinoma cell line growth inhibition [POLQ]
Details: for viability, T/C: stronger effect = lower value
Protocol: Multicellular complex tumor spheroid response to Polymerase (POL) inhibitors (novobiocin, ART-558, RP6685) in combination with a variety of drugs and investigational agents in selected tumor cell lines
The POL inhibitors (novobiocin, ART-558, and RP6685) were evaluated both individually and in combination with standard of care and investigational anticancer small molecules within a complex spheroid model of solid tumors. . Complex spheroids include a stromal component modeled by human endothelial cells (HUVEC) and fibroblasts modeled by human mesenchymal stem cells (MSCs). The concentration ranges selected for each drug and investigational agent were based upon clinically achievable concentrations if the clinical Cmax of the agent was known.
Compounds. The drugs and investigational agents: novobiocin (NSC847541), ART-558 (NSC835418), RP-6685 (NSC848927), peposertib (NSC802822), ceralasertib (NSC780249), elimusertib (NSC800525), camonsertib (NSC841442), AZD-1390 (NSC803789), olaparib (NSC753686), talazoparib (NSC767125), rucaparib (NSC756644), sotorasib (NSC818433), MRTX-1133 (NSC836407), SN-38 (NSC673596), topotecan (NSC609699), epotoside (NSC141540), doxorubicin (NSC123127), gemcitabine (NSC613327), 5-fluorouracil (NSC19893), paclitaxel (NSC125973), vemurafenib (NSC761431), MSA-2 (NSC828583), SN-011 (NSC837082), adavosertib (NSC754352), prexasertib (NSC758257), carboplatin (NSC241240) and oxaliplatin (NSC266046), were obtained from the National Cancer Institute (NCI) Developmental Therapeutics Program Chemical Repository (21). The FDA-approved anticancer drug set is available from the Developmental Therapeutics Program at https://dtp.cancer.gov/organization/dscb/obtaining/. […] The stock solutions were prepared in dimethyl sulfoxide (DMSO, Sigma-Aldrich, St. Louis, MO, cat. D2650), except for the platinum compounds which were prepared in saline (Quality Biological, Gaithersburg, MD, cat. 114-055-101), at 800-fold the tested concentration and stored at -70 degrees C prior to their use. All drugs and investigational agents were tested over a range starting from a high concentration at or near the clinical Cmax and decreasing in half-log increments. If the clinical Cmax for an agent had not been determined, the highest concentration tested was 10 microM, except for SN-38, which was tested at a high concentration of 1 microM.
Cell Culture. All cells were maintained in an incubator at 37 degrees C and 5% CO2 with 95% humidity. The PDC lines were cultured according to standard operating procedures established by the NCI PDMR (https://pdmr.cancer.gov). Table 3 of the manuscript, lists the cell lines along with the number of the three cell types plated to form the mct-spheroids and media for tumor cell growth. After thawing, all PDC lines, except 997537-175-T-J1-PDC and 415267-285-R-J2-PDC, were cultured in Matrigel-coated flasks prepared with a working solution of 1X Ham's F-12 nutrient mix, without supplementation (Thermo Fisher Scientific, cat. 11765054), 100 U/mL penicillin-streptomycin (Thermo Fisher Scientific, cat. 15140122), and 2.5% Matrigel (Corning Inc., Corning, NY, cat. 354248) for the first three passages. The two PDC lines 997537-175-T-J1-PDC and 415267-285-R-J2-PDC were cultured on uncoated flasks. The 857933-349-R-J2-PDC line was cultured in 6C/Colon 1B media containing advanced DMEM/F-12 (Thermo Fisher Scientific, cat. 12634028), 10 mM HEPES (Thermo Fisher Scientific, cat. 15630080), 1X GlutaMAX supplement (Thermo Fisher Scientific, cat. 35050061), 0.1 mg/mL primocin (InvivoGen, San Diego, CA, cat. ant-pm-2), 10% defined fetal bovine serum, heat inactivated (HyClone Laboratories Inc., Logan, UT, cat. SH30070.03HI), 50% L-WRN conditioned media (ATCC, cat. CRL-3276), 1.25 mM N-Acetyl-L-cysteine (Sigma-Aldrich, cat. A9165), 10 mM nicotinamide (Sigma-Aldrich, cat. N0636), 1X B-27 supplement (Thermo Fisher Scientific, cat. 17504044), 1X N-2 supplement (Thermo Fisher Scientific, cat. […]

[1] = curve of first compound, second compound 0.0316 µM
[2] = curve of first compound, second compound 0.1 µM
[3] = curve of first compound, second compound 0.316 µM
[4] = curve of first compound, second compound 1 µM
[5] = curve of first compound, second compound 3.16 µM
[6] = curve of first compound, second compound 10 µM
[7] = second compound 0.0316 µM, first compound 0.0316 µM
[8] = second compound 0.0316 µM, first compound 0.1 µM
[9] = second compound 0.0316 µM, first compound 0.316 µM
[10] = second compound 0.0316 µM, first compound 1 µM
[11] = second compound 0.0316 µM, first compound 3.16 µM
[12] = second compound 0.0316 µM, first compound 10 µM
[13] = second compound 0.1 µM, first compound 0.0316 µM
[14] = second compound 0.1 µM, first compound 0.1 µM
[15] = second compound 0.1 µM, first compound 0.316 µM
[16] = second compound 0.1 µM, first compound 1 µM
[17] = second compound 0.1 µM, first compound 3.16 µM
[18] = second compound 0.1 µM, first compound 10 µM
[19] = second compound 0.316 µM, first compound 0.0316 µM
[20] = second compound 0.316 µM, first compound 0.1 µM
[21] = second compound 0.316 µM, first compound 0.316 µM
[22] = second compound 0.316 µM, first compound 1 µM
[23] = second compound 0.316 µM, first compound 3.16 µM
[24] = second compound 0.316 µM, first compound 10 µM
[25] = second compound 1 µM, first compound 0.0316 µM
[26] = second compound 1 µM, first compound 0.1 µM
[27] = second compound 1 µM, first compound 0.316 µM
[28] = second compound 1 µM, first compound 1 µM
[29] = second compound 1 µM, first compound 3.16 µM
[30] = second compound 1 µM, first compound 10 µM
[31] = second compound 3.16 µM, first compound 0.0316 µM
[32] = second compound 3.16 µM, first compound 0.1 µM
[33] = second compound 3.16 µM, first compound 0.316 µM
[34] = second compound 3.16 µM, first compound 1 µM
[35] = second compound 3.16 µM, first compound 3.16 µM
[36] = second compound 3.16 µM, first compound 10 µM
[37] = second compound 10 µM, first compound 0.0316 µM
[38] = second compound 10 µM, first compound 0.1 µM
[39] = second compound 10 µM, first compound 0.316 µM
[40] = second compound 10 µM, first compound 1 µM
[41] = second compound 10 µM, first compound 3.16 µM
[42] = second compound 10 µM, first compound 10 µM
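Further: spheroids exposed to compounds for seven days.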
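Wherever viability, T/C is given: 100% = DMSO vehicle control viability.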

CC1COCCN1c1cc(-c2ccnn2C)c2ccnc(-c3ccn[nH]3)c2n1 (stereo not drawn) + Cc1cccc(N(C)C(=O)C2C(O)CCN2c2nc(C)cc(C(F)(F)F)c2C#N)c1
IC50 [1]: 203 nM
IC50 [2]: 228 nM
IC50 [3]: 248 nM
IC50 [4]: 336 nM
IC50 [5]: 232 nM
IC50 [6]: 165 nM
viability, T/C [7]: 86.4%
viability, T/C [8]: 63.6%
viability, T/C [9]: 43.3%
viability, T/C [10]: 21.8%
viability, T/C [11]: 21.6%
viability, T/C [12]: 17.8%
viability, T/C [13]: 87.6%
viability, T/C [14]: 72.7%
viability, T/C [15]: 39.3%
viability, T/C [16]: 26.5%
viability, T/C [17]: 17%
viability, T/C [18]: 15.7%
viability, T/C [19]: 92.9%
viability, T/C [20]: 79.8%
viability, T/C [21]: 40%
viability, T/C [22]: 26.5%
viability, T/C [23]: 18.8%
viability, T/C [24]: 13.8%
viability, T/C [25]: 75.8%
viability, T/C [26]: 73.9%
viability, T/C [27]: 50.3%
viability, T/C [28]: 26.4%
viability, T/C [29]: 17.5%
viability, T/C [30]: 15.8%
viability, T/C [31]: 74.9%
viability, T/C [32]: 67.6%
viability, T/C [33]: 44%
viability, T/C [34]: 20%
viability, T/C [35]: 23.3%
viability, T/C [36]: 16.6%
viability, T/C [37]: 67.9%
viability, T/C [38]: 51.5%
viability, T/C [39]: 47.8%
viability, T/C [40]: 25.1%
viability, T/C [41]: 21.3%
viability, T/C [42]: 20.2%

CC1COCCN1c1cc(-c2ccnn2C)c2ccnc(-c3ccn[nH]3)c2n1 (stereo not drawn)
viability, T/C (compound 0.0316 µM): 86.5% and 92.4% and 75%
viability, T/C (compound 0.1 µM): 74.4% and 67.1% and 60.5%
viability, T/C (compound 0.316 µM): 42.4% and 42.7% and 43.7%
viability, T/C (compound 1 µM): 19.7% and 27.9% and 21.6%
viability, T/C (compound 3.16 µM): 17% and 16.9% and 14.9%
viability, T/C (compound 10 µM): 14.1% and 11.3% and 13.9%
IC50 (curve of compound): 239 nM and 230 nM and 198 nM

COc1cc2cc(C(=O)CCC(=O)O)sc2cc1OC + COC1C(OC(N)=O)C(O)C(Oc2ccc3c(O)c(NC(=O)c4ccc(O)c(CC=C(C)C)c4)c(=O)oc3c2C)OC1(C)C
IC50 [1]: > 10000 nM
IC50 [2]: > 10000 nM
IC50 [3]: > 10000 nM
IC50 [4]: > 10000 nM
IC50 [5]: > 10000 nM
IC50 [6]: > 10000 nM
viability, T/C [7]: 108%
viability, T/C [8]: 107%
viability, T/C [9]: 107%
viability, T/C [10]: 111%
viability, T/C [11]: 107%
viability, T/C [12]: 98%
viability, T/C [13]: 105%
viability, T/C [14]: 98.3%
viability, T/C [15]: 99.9%
viability, T/C [16]: 99.8%
viability, T/C [17]: 92.9%
viability, T/C [18]: 98.3%
viability, T/C [19]: 103%
viability, T/C [20]: 107%
viability, T/C [21]: 99.7%
viability, T/C [22]: 94.9%
viability, T/C [23]: 95.6%
viability, T/C [24]: 93%
viability, T/C [25]: 101%
viability, T/C [26]: 96.8%
viability, T/C [27]: 83.6%
viability, T/C [28]: 100%
viability, T/C [29]: 101%
viability, T/C [30]: 101%
viability, T/C [31]: 102%
viability, T/C [32]: 94.1%
viability, T/C [33]: 95.7%
viability, T/C [34]: 84.3%
viability, T/C [35]: 114%
viability, T/C [36]: 108%
viability, T/C [37]: 105%
viability, T/C [38]: 92%
viability, T/C [39]: 108%
viability, T/C [40]: 101%
viability, T/C [41]: 111%
viability, T/C [42]: 109%

CC1COCCN1c1cc(C2(S(C)(=N)=O)CC2)nc(-c2ccnc3[nH]ccc23)n1 (stereo not drawn)
viability, T/C (compound 0.0316 µM): 100% and 105% and 99.8%
viability, T/C (compound 0.1 µM): 95.1% and 99.5% and 101%
viability, T/C (compound 0.316 µM): 89.3% and 114% and 98%
viability, T/C (compound 1 µM): 94.8% and 91.6% and 89.8%
viability, T/C (compound 3.16 µM): 68.1% and 61.6% and 60.5%
viability, T/C (compound 10 µM): 23.7% and 27.7% and 21.9%
IC50 (curve of compound): 5050 nM and 4620 nM and 4330 nM
